Measurements from patent US11926614B2, “1,2,4-triazole derivatives as tankyrase inhibitors” (priority 2018, dated 2024).
Like-named read-outs stand apart in the source and are kept apart here.

Legend:
TNKS2 = TNKS2 (Homo sapiens (Human), UniProt Q9H2K2); test: Biochemical IC50 TNKS2
Text: (§1) XLfit (idbs) was used to determine the IC50-values in inhibition experiments. The following formula was chosen to fit the data points (Langmuir Binding Isotherm): fit=((A+(B*x))+4(C−B)*(1−exp((−1*D)*x)))/D)), res=(y−fit)

HEK293 = test: Cellular IC50 HEK293; assay type: cell-based
Text: as §1

[1] = read-out: Biochemical IC50 TNKS2
[2] = Homo sapiens, HEK293, HEK293; read-out: Cellular IC50 HEK293
[3] = Homo sapiens, HEK293, read-out: Cellular IC50 HEK293
[4] = Homo sapiens, HEK293; read-out: Cellular IC50 HEK293

Sequence of TNKS2 (Q9H2K2 whole entry): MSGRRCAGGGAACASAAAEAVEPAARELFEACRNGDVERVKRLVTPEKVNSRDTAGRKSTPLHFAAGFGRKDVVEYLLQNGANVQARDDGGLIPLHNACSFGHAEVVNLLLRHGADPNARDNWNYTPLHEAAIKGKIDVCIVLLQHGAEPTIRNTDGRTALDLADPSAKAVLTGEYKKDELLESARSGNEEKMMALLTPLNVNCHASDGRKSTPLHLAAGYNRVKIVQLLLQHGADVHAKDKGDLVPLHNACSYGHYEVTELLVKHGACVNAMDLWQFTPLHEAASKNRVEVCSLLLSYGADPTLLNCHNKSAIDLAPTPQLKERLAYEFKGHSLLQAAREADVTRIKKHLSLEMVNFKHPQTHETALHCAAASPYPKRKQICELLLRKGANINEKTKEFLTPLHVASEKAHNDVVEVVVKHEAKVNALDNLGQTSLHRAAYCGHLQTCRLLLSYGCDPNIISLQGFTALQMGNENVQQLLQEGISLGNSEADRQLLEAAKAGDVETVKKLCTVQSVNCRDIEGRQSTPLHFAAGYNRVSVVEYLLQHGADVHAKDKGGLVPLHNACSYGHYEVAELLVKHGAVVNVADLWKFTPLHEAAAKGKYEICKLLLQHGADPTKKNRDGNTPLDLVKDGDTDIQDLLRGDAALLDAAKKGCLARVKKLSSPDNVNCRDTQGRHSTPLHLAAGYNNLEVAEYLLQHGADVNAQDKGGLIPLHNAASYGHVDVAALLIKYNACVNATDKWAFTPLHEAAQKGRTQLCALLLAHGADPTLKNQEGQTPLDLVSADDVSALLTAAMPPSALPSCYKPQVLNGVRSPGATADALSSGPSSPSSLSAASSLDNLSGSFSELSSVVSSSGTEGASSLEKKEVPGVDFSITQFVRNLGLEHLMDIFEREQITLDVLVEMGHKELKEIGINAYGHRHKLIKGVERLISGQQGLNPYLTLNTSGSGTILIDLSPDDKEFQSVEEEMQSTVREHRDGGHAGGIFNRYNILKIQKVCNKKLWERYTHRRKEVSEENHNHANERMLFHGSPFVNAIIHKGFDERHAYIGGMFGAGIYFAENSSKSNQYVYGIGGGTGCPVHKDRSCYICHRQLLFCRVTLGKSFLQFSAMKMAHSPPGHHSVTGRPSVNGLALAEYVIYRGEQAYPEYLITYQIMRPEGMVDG

Row | Structure (SMILES) | IC50 (TNKS2; [1]) [nM] | IC50 (HEK293; [2]) [nM] | IC50 (TNKS2) [nM] | IC50 (HEK293; [3]) [nM] | IC50 (HEK293; [4]) [nM]
1 | O=C(N[C@H]1C[C@H](c2nnc(-c3nccs3)n2-c2ccccc2Cl)C1)c1ccccn1 [Example 42, N-((1S,3r)-3-(4-(2-chlorophenyl)-5-(thiazol-2-yl)-4H-1,2,4-triazol-3-yl)cyclobutyl)picolinamide] | 5.9 | 20 | – | – | –
2 | O=C(N[C@H]1C[C@H](c2nnc(-c3ccccn3)n2-c2ccccc2F)C1)c1ccc2cnccc2n1 [Example 192, N-((1S,3r)-3-(4-(2-fluorophenyl)-5-(pyridin-2-yl)-4H-1,2,4-triazol-3-yl)cyclobutyl)-1,6-naphthyridine-2-carboxamide] | 4.3 | 5.3 | – | – | –
3 | O=C(N[C@H]1C[C@H](c2nnc(-c3ccccc3)n2-c2ccccc2F)C1)c1ccnc2cc(F)cnc12 [Example 177, 7-fluoro-N-((1S,3r)-3-(4-(2-fluorophenyl)-5-phenyl-4H-1,2,4-triazol-3-yl)cyclobutyl)-1,5-naphthyridine-4-carboxamide] | 3.8 | 25 | – | – | –
4 | O=C(N[C@H]1C[C@H](c2nnc(-c3ccncn3)n2-c2ccccc2Cl)C1)c1cccc(F)n1 [Example 19, N-((1S,3r)-3-(4-(2-chlorophenyl)-5-(pyrimidin-4-yl)-4H-1,2,4-triazol-3-yl)cyclobutyl)-6-fluoropicolinamide] | 3 | 0.86 | – | – | –
5 | CCOc1ccc(-c2nnc([C@H]3C[C@H](NC(=O)c4ccc5cnccc5n4)C3)n2-c2ccccc2F)nc1 [Example 97, N-((1S,3r)-3-(5-(5-ethoxypyridin-2-yl)-4-(2-fluorophenyl)-4H-1,2,4-triazol-3-yl)cyclobutyl)-1,6-naphthyridine-2-carboxamide] | 2.5 | 7.5 | – | – | –
6 | O=C(N[C@H]1C[C@H](c2nnc(-c3nccs3)n2-c2ccccc2Cl)C1)c1ccc(F)cc1 [Example 44, N-((1S,3r)-3-(4-(2-chlorophenyl)-5-(thiazol-2-yl)-4H-1,2,4-triazol-3-yl)cyclobutyl)-4-fluorobenzamide] | 13 | 50 | – | – | –
7 | CS(=O)(=O)c1ccc(-c2nnc([C@H]3C[C@H](NC(=O)c4ccnc5cc(F)cnc45)C3)n2-c2ccccc2F)nc1 [Example 50, 7-fluoro-N-((1S,3r)-3-(4-(2-fluorophenyl)-5-(5-(methylsulfonyl)pyridin-2-yl)-4H-1,2,4-triazol-3-yl)cyclobutyl)-1,5-naphthyridine-4-carboxamide] | 1.6 | 0.23 | – | – | –
8 | O=C(N[C@H]1C[C@H](c2nnc(-c3ccncn3)n2-c2ccccc2Cl)C1)c1cccc(F)c1 [Example 14, N-((1S,3r)-3-(4-(2-chlorophenyl)-5-(pyrimidin-4-yl)-4H-1,2,4-triazol-3-yl)cyclobutyl)-3-fluorobenzamide] | 6.7 | 40 | – | – | –
9 | [2H]C([2H])([2H])C([2H])([2H])Oc1ccc(-c2nnc([C@H]3C[C@H](NC(=O)c4cccc5cccnc45)C3)n2-c2ccccc2F)nc1 [Example 95, N-((1S,3r)-3-(5-(5-(ethoxy-d5)pyridin-2-yl)-4-(2-fluorophenyl)-4H-1,2,4-triazol-3-yl)cyclobutyl)quinoline-8-carboxamide] | – | 0.48 | 3.5 | – | –
10 | CCOc1ccc(-c2nnc([C@H]3C[C@H](NC(=O)c4cc5cnccc5[nH]4)C3)n2-c2ccccc2F)nc1 [Example 157, N-((1S,3r)-3-(5-(5-ethoxypyridin-2-yl)-4-(2-fluorophenyl)-4H-1,2,4-triazol-3-yl)cyclobutyl)-1H-pyrrolo[3,2-c]pyridine-2-carboxamide] | 4.4 | 34 | – | – | –
11 | O=C(N[C@H]1C[C@H](c2nnc(-c3ccccc3)n2-c2ccccc2F)C1)c1ccnc2cccnc12 [Example 176, N-((1S,3r)-3-(4-(2-fluorophenyl)-5-phenyl-4H-1,2,4-triazol-3-yl)cyclobutyl)-1,5-naphthyridine-4-carboxamide] | 3.6 | 28 | – | – | –
12 | O=C(N[C@H]1C[C@H](c2nnc(-c3ccccn3)n2-c2ccccc2F)C1)c1cc(F)cc2nccnc12 [Example 194, 7-fluoro-N-((1S,3r)-3-(4-(2-fluorophenyl)-5-(pyridin-2-yl)-4H-1,2,4-triazol-3-yl)cyclobutyl)quinoxaline-5-carboxamide] | 2 | – | – | 0.794 | –
13 | [2H]C([2H])([2H])C([2H])([2H])Oc1ccc(-c2nnc([C@H]3C[C@H](NC(=O)c4ccnc5cc(F)cnc45)C3)n2-c2ccccc2F)nc1 [Example 94, N-((1S,3r)-3-(5-(5-(ethoxy-d5)pyridin-2-yl)-4-(2-fluorophenyl)-4H-1,2,4-triazol-3-yl)cyclobutyl)-7-fluoro-1,5-naphthyridine-4-carboxamide] | – | – | 2.7 | – | 0.45
14 | CCOc1ccc(C(=O)N[C@H]2C[C@H](c3nnc(-c4nccs4)n3-c3ccccc3F)C2)nc1 [Example 30, 5-ethoxy-N-((1S,3r)-3-(4-(2-fluorophenyl)-5-(thiazol-2-yl)-4H-1,2,4-triazol-3-yl)cyclobutyl)picolinamide] | 2 | 16 | – | – | –
15 | O=C(N[C@H]1C[C@H](c2nnc(-c3ccccn3)n2-c2ccccc2F)C1)c1cccc2nccnc12 [Example 193, N-((1S,3r)-3-(4-(2-fluorophenyl)-5-(pyridin-2-yl)-4H-1,2,4-triazol-3-yl)cyclobutyl)quinoxaline-5-carboxamide] | 1.6 | – | – | 0.286 | –
16 | O=C(N[C@H]1C[C@H](c2nnc(-c3ccncn3)n2-c2ccccc2Cl)C1)c1ccc(F)cc1 [Example 15, N-((1S,3r)-3-(4-(2-chlorophenyl)-5-(pyrimidin-4-yl)-4H-1,2,4-triazol-3-yl)cyclobutyl)-4-fluorobenzamide] | 4.1 | 30 | – | – | –
17 | CCOc1ccc(-c2nnc([C@H]3C[C@H](NC(=O)c4cccc5cccnc45)C3)n2-c2ccc(C)s2)nc1 [Example 83, N-((1r,3r)-3-(5-(5-ethoxypyridin-2-yl)-4-(5-methylthiophen-2-yl)-4H-1,2,4-triazol-3-yl)cyclobutyl)quinoline-8-carboxamide] | 2.4 | – | – | 1 | –
18 | CCOc1ccc(-c2nnc([C@H]3C[C@H](NC(=O)c4ccc(F)cc4)C3)n2-c2ccccc2)nc1 [Example 70, N-((1r,3r)-3-(5-(5-ethoxypyridin-2-yl)-4-phenyl-4H-1,2,4-triazol-3-yl)cyclobutyl)-4-fluorobenzamide] | 8.5 | 48 | – | – | –
19 | O=C(N[C@H]1C[C@H](c2nnc(-c3ccncn3)n2-c2ccccc2Cl)C1)c1ccnc2cccnc12 [Example 5, N-((1S,3r)-3-(4-(2-chlorophenyl)-5-(pyrimidin-4-yl)-4H-1,2,4-triazol-3-yl)cyclobutyl)-1,5-naphthyridine-4-carboxamide] | 0.85 | – | – | – | 1
20 | O=C(NC12CC(c3nnc(-c4ccncn4)n3-c3ccccc3Cl)(C1)C2)c1ccccc1 [Example 23, N-(3-(4-(2-chlorophenyl)-5-(pyrimidin-4-yl)-4H-1,2,4-triazol-3-yl)bicyclo[1.1.1]pentan-1-yl)benzamide] | 3.8 | 100 | – | – | –
21 | CCOc1ccc(-c2nnc([C@H]3C[C@H](NC(=O)c4cc5ccccc5cn4)C3)n2-c2ccccc2F)nc1 [Example 99, N-((1S,3r)-3-(5-(5-ethoxypyridin-2-yl)-4-(2-fluorophenyl)-4H-1,2,4-triazol-3-yl)cyclobutyl)isoquinoline-3-carboxamide] | 5.4 | 18 | – | – | –
22 | CCOc1ccc(-c2nnc([C@H]3C[C@H](NC(=O)c4ccc5ccccc5n4)C3)n2-c2ccccc2F)nc1 [Example 104, N-((1S,3r)-3-(5-(5-ethoxypyridin-2-yl)-4-(2-fluorophenyl)-4H-1,2,4-triazol-3-yl)cyclobutyl)quinoline-2-carboxamide] | 6.4 | 14 | – | – | –
23 | CCOc1ccc(-c2nnc([C@H]3C[C@H](NC(=O)c4nc5ccccc5[nH]4)C3)n2-c2ccc(C)s2)nc1 [Example 143, N-((1r,3r)-3-(5-(5-ethoxypyridin-2-yl)-4-(5-methylthiophen-2-yl)-4H-1,2,4-triazol-3-yl)cyclobutyl)-1H-benzo[d]imidazole-2-carboxamide] | 11 | 94 | – | – | –
24 | CCOc1ccc(-c2nnc([C@H]3C[C@H](NC(=O)c4ccc5cc[nH]c5n4)C3)n2-c2ccccc2F)nc1 [Example 98, N-((1S,3r)-3-(5-(5-ethoxypyridin-2-yl)-4-(2-fluorophenyl)-4H-1,2,4-triazol-3-yl)cyclobutyl)-1H-pyrrolo[2,3-b]pyridine-6-carboxamide] | 4.9 | 14 | – | – | –
25 | CCOc1ccc(-c2nnc(C34CC(NC(=O)c5ccnc6cccnc56)(C3)C4)n2-c2ccncc2)nc1 [Example 172, N-(3-(5-(5-ethoxypyridin-2-yl)-4-(pyridin-4-yl)-4H-1,2,4-triazol-3-yl)bicyclo[1.1.1]pentan-1-yl)-1,5-naphthyridine-4-carboxamide] | 9.4 | – | – | – | 43
26 | CCOc1ccc(-c2nnc([C@H]3C[C@H](NC(=O)c4cccc(C)n4)C3)n2-c2ccccc2F)nc1 [Example 119, N-((1S,3r)-3-(5-(5-ethoxypyridin-2-yl)-4-(2-fluorophenyl)-4H-1,2,4-triazol-3-yl)cyclobutyl)-6-methylpicolinamide] | 5 | 39 | – | – | –
27 | CCOc1ccc(-c2nnc([C@H]3C[C@H](NC(=O)c4ccccn4)C3)n2-c2ccccc2)nc1 [Example 68, N-((1r,3r)-3-(5-(5-ethoxypyridin-2-yl)-4-phenyl-4H-1,2,4-triazol-3-yl)cyclobutyl)picolinamide] | 5.2 | – | – | 65 | –
28 | Cc1ccc(-n2c(-c3nccs3)nnc2[C@H]2C[C@H](NC(=O)c3ccnc4cccnc34)C2)s1 [Example 89, N-((1r,3r)-3-(4-(5-methylthiophen-2-yl)-5-(thiazol-2-yl)-4H-1,2,4-triazol-3-yl)cyclobutyl)-1,5-naphthyridine-4-carboxamide] | 2.7 | 2.4 | – | – | –
